PMC9699003, “Arene Variation of Highly Cytotoxic Tridentate Naphthoquinone-Based Ruthenium(II) Complexes and In-Depth In Vitro Studies” (Pharmaceutics, 2022)
Like-named read-outs stand apart in the source and are kept apart here.

Key:
[1] = test system: SW480 colon carcinoma cells; test: MTT assay (cytotoxicity); assay type: cell-based, human; conditions: 96 h exposure
Protocol: (§1) CH1/PA-1 ovarian teratocarcinoma cells (provided by L. R. Kelland, CRC Centre for Cancer Therapeutics, Institute of Cancer Research, Sutton, UK; confirmed by STR profiling as PA-1 ovarian teratocarcinoma cells at Multiplexion, Heidelberg, Germany), SW480 colon carcinoma and A549 non-small cell lung cancer cells (both obtained from the American Type Culture Collection, Manassas, VA, USA) were grown as adherent cultures in 75 cm² culture flasks (CytoOne, Starlab, Hamburg, Germany) by using minimal essential medium (MEM) supplemented with 1 mM sodium pyruvate, 4 mM L-glutamine, 1% (v/v) nonessential amino acids from 100-fold stock (all purchased from Sigma-Aldrich) and 10% heat-inactivated fetal bovine serum (BioWest, Nuaillé, France). Cells were maintained under standard culture conditions with 5% CO2 at 37 °C in a humidified atmosphere.
(§2) The 3-(4,5-dimethylthiazol-2-yl)-2,5-diphenyl-2H-tetrazolium bromide (MTT, Acros Organics, Geel, Belgium) assay was used to detect the cytotoxicity of the compounds after 24 h and 96 h incubation. In brief, cells were harvested from culture flasks and the following cell numbers (each in 100 µL) were seeded into 96-well culture plates (CytoOne, tissue culture treated, Starlab, Hamburg, Germany) for 24 h incubation: 1 × 10^4 (CH1/PA-1), 1 × 10^4 (SW480) and 1.5 × 10^4 (A549) cells per well; and for 96 h incubation: 1 × 10^3 (CH1/PA-1), 2 × 10^3 (SW480) and 3 × 10^3 (A549) cells per well. After 24 h, cells resuming their exponential growth rate were treated with test compounds at nine concentrations obtained by serial two-fold dilution. Stock solutions were prepared in DMSO (20 mM or 40 mM) and diluted in supplemented MEM. An amount of 100 µL of each concentration was added to the plates in triplicates and cells were exposed for 24 or 96 h. Afterward, the medium was replaced with 100 µL of MTT solution (5 mg/mL) in phosphate-buffered saline (PBS, Sigma-Aldrich), diluted 1:7 in RPMI 1640 medium (supplemented with 4 mM L-glutamine and 10% heat-inactivated FBS). Upon cell-viability-dependent conversion of the yellow, water-soluble tetrazolium salt into purple formazan products for 4 h, the crystals were dissolved in 150 µL DMSO. The absorbance of the resulting solutions, which is directly proportional to the number of viable cells, was measured at 550 nm (and at 690 nm as a reference) with a microplate reader (ELx808, BioTek, Winoosky, VT, USA) and Gen5TM 3.08 software (BioTek). Blank-corrected optical densities were subjected to graphical evaluation and interpolation of IC50 values. At least three biologically and technically independent experiments were performed.

[2] = test system: CH1/PA-1 ovarian teratocarcinoma cells; test: MTT assay (cytotoxicity); assay type: cell-based, human; conditions: CH1/PA-1, MTT, 96 h exposure
Protocol: as §1, §2

[3] = test system: A549 non-small cell lung cancer cells; test: MTT assay (cytotoxicity); assay type: cell-based, human; conditions: 96 h exposure
Protocol: as §1, §2

[4] = test system: A549 non-small cell lung cancer cells; conditions: A549, MTT, 96 h exposure; cited from earlier work
[5] = test system: CH1/PA-1 ovarian teratocarcinoma cells; conditions: CH1/PA-1, MTT, 96 h exposure; cited from earlier work
[6] = test system: SW480 colon carcinoma cells; conditions: SW480, MTT, 96 h exposure; cited from earlier work

SMILES	IC50 [1]	IC50 [2]	IC50 [3]	IC50 [4]	IC50 [5]	IC50 [6]
N.N.[Cl][Pt][Cl] [Cisplatin, reference compound]	2.3 ± 0.2 µM	0.073 ± 0.001 µM	3.8 ± 1 µM			
[Cl][Ru-]1[Cl+][Ru-]([Cl])[Cl+]1.c1ccc2c(c1)CCC2.c1ccc2c(c1)CCC2 [[Ru(indane)Cl2]2]				257 ± 66 µM	51 ± 13 µM	166 ± 35 µM
[Cl][Ru][Cl].[Cl][Ru][Cl].c1ccccc1.c1ccccc1 [[Ru(benzene)Cl2]2]				> 100 µM	> 100 µM	> 100 µM
N.N.O=C([O-])C1(C(=O)[O-])CCC1.[Pt+2] [Carboplatin]				38 ± 3 µM	0.79 ± 0.11 µM	42 ± 10 µM
O=C1[O][Pt]2([NH][C@@H]3CCCC[C@H]3[NH]2)[O]C1=O [Oxaliplatin]				0.98 ± 0.21 µM	0.18 ± 0.01 µM	0.29 ± 0.05 µM
Cc1ccccc1.Cc1ccccc1.[Cl][Ru-]1[Cl+][Ru-]([Cl])[Cl+]1 [[Ru(toluene)Cl2]2]				> 100 µM	> 100 µM	> 100 µM
